Activity calls are given as the source filed them. No cut-off for these calls is given here.
Key:
[1] = Antioxidant activity assessed as DPPH radical scavenging activity at 100 uM after 30 mins (reference value: 1.9 +/- 1.2%); assay type: functional
Rattus norvegicus = species on record: Rattus norvegicus; assay: Inhibition of rat bone marrow myeloperoxidase using H2O2 as substrate at 10 uM after 20 mins by TMB based method (reference value: - 1.4 +/- 12.7%)
[2] = biological target: Acetylcholinesterase (Electrophorus electricus) (UniProt O42275); assay: Inhibition of Electrophorus electricus AChE at 100 uM using acetylthiocholine iodide as substrate preincubated for 30 mins followed by substrate addition and measured after 10 mins by Ellman's method
[3] = Antioxidant activity assessed as DPPH radical scavenging activity after 30 mins; assay type: functional
[4] = Inhibition of rat bone marrow myeloperoxidase using H2O2 as substrate after 20 mins by TMB based method
[5] = Metal chelating activity assessed as compound-Ca2+ complex formation at 20 uM in presence of CaCl2 after 2 hrs by UV-visible spectrophotometric analysis
[6] = Metal chelating activity assessed as compound-Cu2+ complex formation at 20 uM in presence of Cucl2 after 2 hrs by UV-visible spectrophotometric analysis
[7] = Metal chelating activity assessed as compound-Mg2+ complex formation at 20 uM in presence of MgCl2 after 2 hrs by UV-visible spectrophotometric analysis
[8] = Metal chelating activity assessed as compound-Zn2+ complex formation at 20 uM in presence of ZnCl2 after 2 hrs by UV-visible spectrophotometric analysis
[9] = Metal chelating activity assessed as compound-Fe2+ complex formation at 20 uM in presence of FeCl2 after 2 hrs by UV-visible spectrophotometric analysis
[10] = Metal chelating activity assessed as compound-Fe2+ complex stoichiometry ratio of 2:1 at 20 uM in presence of FeCl2 after 2 hrs by Job's plot analysis
[11] = Metal chelating activity assessed as compound-Zn2+ complex stoichiometry ratio of 2:1 at 20 uM in presence of ZnCl2 after 2 hrs by Job's plot analysis
[12] = biological target: Acetylcholinesterase (Electrophorus electricus) (UniProt O42275); assay: Non-competitive mixed inhibition of Electrophorus electricus AChE using acetylthiocholine iodide as substrate preincubated for 30 mins followed by substrate addition and measured after 10 mins by Lineweaver-Burk plot analysis

Acetylcholinesterase (Electrophorus electricus), sequence (O42275 24-633 limits assumed): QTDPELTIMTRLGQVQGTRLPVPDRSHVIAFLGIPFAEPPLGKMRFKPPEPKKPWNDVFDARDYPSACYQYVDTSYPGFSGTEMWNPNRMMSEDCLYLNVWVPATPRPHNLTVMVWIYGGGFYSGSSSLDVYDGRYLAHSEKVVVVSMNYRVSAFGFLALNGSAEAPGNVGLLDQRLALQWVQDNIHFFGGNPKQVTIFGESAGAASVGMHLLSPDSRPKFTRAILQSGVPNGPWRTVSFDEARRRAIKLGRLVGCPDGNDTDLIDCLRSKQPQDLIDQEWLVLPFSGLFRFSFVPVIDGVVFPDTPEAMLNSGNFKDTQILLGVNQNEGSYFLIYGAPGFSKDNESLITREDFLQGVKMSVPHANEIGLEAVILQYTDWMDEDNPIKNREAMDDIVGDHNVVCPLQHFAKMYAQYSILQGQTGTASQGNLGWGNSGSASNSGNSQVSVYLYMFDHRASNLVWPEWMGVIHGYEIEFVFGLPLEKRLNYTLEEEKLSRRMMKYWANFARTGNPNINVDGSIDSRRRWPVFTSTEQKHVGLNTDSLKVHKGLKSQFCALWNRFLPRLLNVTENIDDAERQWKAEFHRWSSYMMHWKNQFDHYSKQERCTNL

In the case of `O=C(N/N=C/c1ccc(F)cc1)c1ccncc1`, the Activity [1] is reported as 8.1%, the inhibition (Rattus norvegicus) is reported as 4.6% and the inhibition [2] is reported as 16.3%.

`O=C(N/N=C/c1cc(O)ccc1O)c1ccncc1` gave an Activity [1] of 92.4%, an IC50 [3] of 18.3 µM and an inhibition (Rattus norvegicus) of 100%. The IC50 [4] was 4.8 µM and the inhibition [2] was 0.3%.

Compound `O=C(N/N=C/c1ccc(O)cc1)c1ccncc1` has an Activity [1] of 28.7% and an inhibition [2] of 10%.

In the case of `NNC(=O)c1ccncc1` [ISONIAZID], the Activity [1] is reported as 91.3%, the IC50 [3] is reported as 22.9 µM and the inhibition (Rattus norvegicus) is reported as 99%. For the same compound, the IC50 [4] was 3.9 µM and the inhibition [2] was 5.8%.

Work on `O=c1c(O)c(-c2ccc(O)c(O)c2)oc2cc(O)cc(O)c12` [QUERCETIN] yielded an Activity [1] of 96.3%, an IC50 [3] of 15.3 µM and an inhibition (Rattus norvegicus) of 96.3%.

Compound `O=C(N/N=C/c1ccc([N+](=O)[O-])cc1)c1ccncc1` has an Activity [1] of 2.5%, an inhibition (Rattus norvegicus) of 32% and an inhibition [2] of 12.7%.

Work on `COc1cc(/C=N/NC(=O)c2ccncc2)ccc1O` [FTIVAZIDE] yielded an Activity [1] of 76.7%, an IC50 [3] of 33.6 µM and an inhibition (Rattus norvegicus) of 17.3%. For the same compound, the inhibition [2] was 23.1%.

In the case of `COc1ccc(/C=N/NC(=O)c2ccncc2)cc1`, the Activity [1] is reported as 2.4%, the inhibition (Rattus norvegicus) is reported as 6% and the inhibition [2] is reported as 8%.

For `O=C(N/N=C/c1ccccc1O)c1ccncc1`, the Activity [1] was 5.3%, the inhibition (Rattus norvegicus) was 45.3% and the inhibition [2] was 3%.

For `O=C(N/N=C/c1ccccn1)c1ccncc1`, the Activity [1] was -0.6%, the inhibition (Rattus norvegicus) was 0.3% and the inhibition [2] was 24.5%.

For `O=C(N/N=C/c1coc2ccccc2c1=O)c1ccncc1`, the Activity [1] was 82.2%, the IC50 [3] was 42.4 µM and the inhibition (Rattus norvegicus) was 80.1%. For the same compound, the IC50 [4] was 5.3 µM, the inhibition [2] was 54.2% and the Activity [5] was “inactive”. For the same compound, the Activity [6] was “Active”, the Activity [7] was “inactive” and the Activity [8] was “Active”. For the same compound, the Activity [9] was “Active”, the Activity [10] was “Active” and the Activity [11] was “Active”. For the same compound, the inhibition [12] was “Active”.

Work on `O=C(N/N=C/c1ccc(Cl)c(Cl)c1)c1ccncc1` yielded an Activity [1] of 3.9%, an inhibition (Rattus norvegicus) of -2.4% and an inhibition [2] of 14%.

`CCN(C)C(=O)Oc1cccc([C@H](C)N(C)C)c1` showed an Activity [1] of 0.2%, an inhibition (Rattus norvegicus) of 17.1% and an inhibition [2] of 59.6%.

`O=C(N/N=C/c1cccc([N+](=O)[O-])c1)c1ccncc1` gave an Activity [1] of 2%, an inhibition (Rattus norvegicus) of -10% and an inhibition [2] of 36.2%.

`CN(C)c1ccc(/C=N/NC(=O)c2ccncc2)cc1` [N'-(4-DIMETHYLAMINOBENZYLIDENE)ISONICOTINOHYDRAZIDE] gave an Activity [1] of 6.3%, an inhibition (Rattus norvegicus) of 96.1% and an IC50 [4] of 1.4 µM. For the same compound, the inhibition [2] was 6.9%.

Compound `O=C(N/N=C/c1cc(Br)ccc1O)c1ccncc1` has an Activity [1] of 3.9%, an inhibition (Rattus norvegicus) of 90% and an IC50 [4] of 4.3 µM. The inhibition [2] was 6.8%.

Work on `O=C(N/N=C/c1ccccc1)c1ccncc1` yielded an Activity [1] of 3.3%, an inhibition (Rattus norvegicus) of 5.1% and an inhibition [2] of 16.5%.

`O=C(N/N=C/c1c[nH]c2ccccc12)c1ccncc1` gave an Activity [1] of 28.8%, an inhibition (Rattus norvegicus) of 82.2% and an IC50 [4] of 1.5 µM. For the same compound, the inhibition [2] was 5.5%.
